Reference: patent US10801023B2, “Methods of identifying biologically active random peptides in plants and libraries of plants expressing candidate biologically active random peptides” (University of Florida Research Foundation, Inc., priority 2015, dated 2020)

How the values were obtained:
Arabidopsis plants [1] = assay: Plant growth and phenotyping of PEP6 / PEP12 transgenic plants; assay type: in vivo, Arabidopsis thaliana; details: transgenic plant in soil; normal-sized plants 25 mm to 30 mm
Description: Two libraries encoding six- and twelve-random amino acid cyclized peptides (denoted PEP6 and PEP12, respectively) were constructed in binary vectors (as illustrated in FIG. 9) using a Gateway cloning strategy and transformed into Arabidopsis. More than 1,500 transgenic plants with the PEP6 T-DNA inserts were isolated and more than 600 transgenic plants were isolated carrying the PEP12 insert, representing a survival ratio of 1.8% and 1.2% respectively under kanamycin selection. To ensure library representation in the population, DNA was prepared from at least fifty transgenic plants, including ten that had small rosette diameter (5 mm to 10 mm) (e.g., those having BARP sequences SEQ ID NO: 14, 16, 6, 19, 21, 23, 26, 28, 30, and 32) compared to normal-sized plants (25 mm to 30 mm; see Table 2). The nucleotide sequences of all amplified random peptide open reading frames (rpORFs) were different, indicating representation of library diversity was maintained throughout the cloning and transformation process. Several phenotypes were visually apparent. […] Some plants showing multiple growth defects were recorded in each phenotype. Bolting plants with multiple inflorescences were transformed with the PEP6 or PEP12 destination library through the floral dipping method (Clough and Bent, 1998, incorporated herein by reference). For selection, seeds were surface sterilized by 70% ethanol for 5 min and 10% bleach for 20 min. Surface-sterilized seeds were plated on ½× MS basal medium with 0.5% Phyto Agar (cat. # M10200 and # A20300, Research Products International) and 50 μg/ml kanamycin for selection. Transgenic seedlings were identified by GFP expression or resistance to kanamycin. Transformed seedlings were grown to the 3-5 true leaf stage on plates and transferred to soil. DNA was extracted from each seedling (Edwards et al., 1991 incorporated herein by reference) for inserted nucleotide sequence identification. An approximately 500 bp DNA fragment containing the random peptide ORF and part of pK7WG2D vector sequence was amplified using primers PEP-F and PEP-R (SEQ ID NOs: 35 and 36, respectively) listed in Table 4 and sequenced. Arabidopsis plants were grown in soil at 20° C. under 16 hour light/8 hour dark conditions. The characterization of phenotypic variations was based on the comparison among seedlings grown in the same pot or flat.

Arabidopsis seedlings = assay: Effects of lethal sequences: growth of PEP6-3 seedlings with or without sucrose; assay type: in vivo, Arabidopsis thaliana
Description: If these seedlings were transplanted to media supplemented with 2% sucrose some of them survived. These surviving seedlings were genotyped. One of these seedlings grew on a sucrose plate for one month and in soil for another 2 months before bolting and setting seeds. The rpORF was re-cloned and transformed into Col-0 Arabidopsis to generate independent transformation lines. […] The T2 seeds from the original line and 5 independent lines were sown on a ½ MS plate with or without sucrose under kanamycin selection. Seeds on both types of media germinated at a rate of 95%. […] The effect of the peptide was tested in petunia. […] Thus, the BARP for PEP6-3 (SEQ ID NO: 14, nucleotide sequence SEQ ID NO: 13) appears to produce phenotype that requires sucrose media.
It is possible that the phenotypes observed were not related to the peptide sequence, but instead were artifacts of T-DNA integration, since insertion of the CaMV35S-bearing T-DNA cassette could potentially disrupt a gene where an effect could be observed in its heterozygous form, or the viral promoter could activate expression of neighboring genes, resulting in an observable phenotype. Thus, to generate a series of independent transformants for each sequence of interest, the random peptide ORFs from transgenic plants showing aberrant phenotypes were amplified using attB universal adaptor primers, and cloned into pDONR222 and pK7WG2D vectors via BP and LR reactions, respectively. These constructs were then transformed into Arabidopsis to generate additional independent transgenic lines. Each series of independent transgenic lines containing the same random peptide ORF were grown under the same conditions used to produce the original phenotype. Transcript abundance of the random peptide ORF and the control gene Ubiquitin family protein (UFP, At4g01000) in every transgenic line was analyzed by semi-quantitative RT-PCR using attB1 and attB2 adaptor primers or UFP-rF and -rR primers (SEQ ID NOs: 37-38), respectively.
The seedling was moved to media containing sucrose where it then developed normally. Five independent lines (1, 2, 3, 4 and 6) containing the PEP6-3 sequence (SEQ ID NO: 13) were grown under kanamycin selection on ½ MS medium with or without the supplement of 2% sucrose in dark for the first 7 d and then exposed to light. Without sucrose, some seedlings with only the two cotyledons or the first two true leaves died eventually, and only a few seedlings fully developed. The proportion of seedlings developed with the first two true leaves or fully developed was recorded.

Petunia hybrida = assay: Petunia transformation with PEP6-3; assay type: in vivo; details: five independent transgenic shoots, versus controls
Description: PEPS-3 was introduced into Petunia hybrida by Agrobacterium tumefaciens-mediated transformation of leaf fragments, following a modified protocol by Jorgensen et al, (1996), incorporated herein by reference. Leaves were dissected into 4×5 mm fragments and immersed in Agrobacterium solution for 15 min, then transferred to MS agar plates supplemented with TDZ (1 μg/mL), galacturonic add (212 μg/mL) and acetosyringone (8 μg/mL). After 2 d in darkness, explants were transferred to MS medium containing TDZ (1 μg/mL), carbenicillin (500 μg/mL) and kanamycin (150 μg/mL) for two weeks. Callusing explants were then transferred to light on MS medium containing only antibiotics. After the appearance of shoots, these were transferred to MS medium containing antibiotics and IBA (0.8 μg/mL), for root formation.

[2] = tested on: Arabidopsis thaliana plants; assay: Screening of library of transformed plants expressing candidate BARPs for new phenotypes; assay type: in vivo; details: transgenic Arabidopsis thaliana expressing the BARP, scored from emergence to senescence
Description: In the present example, the methods of the present disclosure were used to generate a library of test nucleic acids encoding a plurality of candidate BARPs, each having a core 6 amino acid random peptide sequence flanked by two cysteine residues. The sequences were also flanked by start and stop codons and Gateway® sequences, such as illustrated in FIG. 1. PCR was used with primers corresponding to the known Gateway flanking sequences to generate the test nucleic acid library. The oligonucleotides were then cloned into bacterial vectors including genes for kanamycin resistance to create a recombination vector library. The vectors were then moved to Agrobacterium tumefaciens strain […] and used to transform Arabidopsis thaliana plants. Seeds were collected from the transformed plants and used to grow new plants. These plants were observed from seedling through the plant lifecycle and observed for new phenotypes. Several new phenotypes emerged, DNA was extracted from the plants displaying new phenotypes, and the sequence of the candidate BARP from the plants was determined. The procedures and results are described in detail below.
The test nucleic acid sequences were synthesized using conserved initiator and terminator sequences flanking 18 random nucleotides, which provides a peptide that is ten amino acids long, with six of the core amino acids randomized, following a Met-Ala-Cys and ending with a Cys-term. This template is illustrated in FIG. 1. In the present example, the corresponding nucleic acid sequence was […] (SEQ ID NO: 5; nucleotides 14-46 of SEQ ID NO: 1). The cysteine residues in this case provide potential for formation of disulfide bonds that may impart additional structure to the adjacent amino acid loop. Although in this example 18 random nucleotides (identified as “N” in SEQ ID NOs: 1 and 5) were used, any number may be used, as long as it is a multiple of three.
To construct the library of random-core BARP sequences, the above DNA sequence was synthesized as an oligonucleotide sequence, along with flanking sequences corresponding to the Gateway® recombination sequences. The middle portion of the sequence, represented by “N” in FIG. 1, were randomized nucleotides. Known synthesis techniques were used to build the sequences, resulting in a library of PCR products containing test nucleic acid sequences (start codon, spacer codon, cysteine codon, 18 random nucleotides encoding a core candidate BARP sequence, second cysteine codon, and stop codon) flanked by Gateway recombination sequences. Although Gateway® sequences were used in the present examples, other recombination cloning primer sequences could be used or specifically designed.
The library of PCR products containing random test sequences was amplified using PCR based on flanking primers containing Gateway recombination sequences. These reactions produced a population of PCR products each containing the core peptide test sequence flanked by Gateway recombination sequences. These PCR products were introduced to the vector pDONR222 using Gateway recombination, and then transformed into E. coli genotype DH5α. The transformation vector also included the NPTII gene for kanamycin resistance. The E. coli cells were plated on kanamycin plates at low density to obtain single-colony separation. The single colonies each contained a separate plasmid bearing a random peptide sequence.
The colonies were recovered from plates in liquid medium, and the plasmids were isolated. The isolated plasmids represented a library of many independent, random sequences (encoding candidate BARPs) flanked by ‘start’ and ‘stop’ sequences. […]

[3] = tested on: Arabidopsis thaliana plants; assay: Independent replication of peptide-induced phenotypes in independent transformant lines; assay type: in vivo; details: BARP sequence re-introduced into Arabidopsis thaliana
Description: A number of first-transformed generation plants were prepared and phenotypes were observed using the methods described in Example 1, above. In this example some 12-amino-acid-long candidate BARPs were also synthesized and tested. The procedures were the same as for the 6-aa BARPs described in Example 1. These phenotypes were also observed to be stable and inherited in subsequent generations. To verify that the effects observed are due to the expressed peptide and not to other less-likely positional/insertional causes, in this Example, a substantial number of the of the candidate 6 and 12 amino-acid-long BARPs were sequenced and separately transformed into independent plants. […] One microliter was used in a PCR reaction under standard conditions, and using primers corresponding to the attachment (recombinational cloning sequences) of the Gateway vector, the corresponding BARP sequences was amplified. This sequences were then recombined into the pDONR222 vector and then re-ligated into the binary pKWDG2 over-expression vector as described above. This sequence was then re-introduced into Arabidopsis thaliana plants using the floral dipping strategy and selection as noted above. The seedlings were then analyzed for the phenotype as defined by the original transformant. Recapitulation of the phenotype in multiple, independent transformation events provided high evidence of a specific physiological effect of the peptide.

[4] = tested on: Arabidopsis thaliana plants; assay: Quantitative analysis of flowering time of CBF6AA-15 transformant lines; assay type: in vivo; details: lines 26, 29, 31 versus wild type Col-0
Description: FIG. 4A is a digital image comparing a wild type A. thaliana plant with 3 separate lines transformed with the 6AA-15 BARP. A bar graph comparing the number of rosette leaves for each line at the time of flowering is illustrated in FIG. 4B. FIGS. 4C-4F are a series of graphs illustrating quantitative analysis of flowering time for the plant lines illustrated in FIG. 4A, with a minimum of 113 plants analyzed per line.
The observed phenotype was also confirmed by the observed number of rosette leaves present on the plant at the time of flowering, where transformants flowered days earlier and after producing fewer leaves. […] A minimum of 113 plants were analyzed per line, and the number of days until flowering was recorded. FIGS. 4C-4F illustrate the distribution of flowering times of wild type plants vs. the three transformant lines, with the mean shifting from 36 days in wild-type plants to […] in the transgenic lines.

Arabidopsis plants [5] = assay: Flowering time measurement; assay type: in vivo, Arabidopsis thaliana
Description: The rpORF were cloned from this seedling PEP6-15 and retransformed into Col-0. A total of 15 independent transgenic lines were isolated and measured on their flowering time. About 75% independent lines had earlier flowering time compared to wild type plants. Thereafter three representative lines 1, 2 and 3, were chosen for detailed analyses (FIG. 11A). […] Thus, the BARP for PEP6-15 (SEQ ID NO: 6, nucleotide sequence SEQ ID NO: 17) appears to produce an earlier flowering time phenotype. […] Three independent PEP6-15 transgenic lines with no transgene segregation were grown directly in soil for the measurement of flowering time. Every line was planted in three 10 cm×10 cm×11 cm pots, and approximately twenty seeds were sown in each pot. The flowering time was recorded as the number of rosette leaves when the inflorescence stem was 0.5-1 cm long. When the majority of plants had flowered, measurement was concluded.

[6] = ½ MS plate without sucrose, kanamycin selection, T2 seeds

Row | Sequence | rosette size (Arabidopsis plants [1]) | size of independent transgenic lines (Arabidopsis seedlings; 20 independent transgenic lines versus control lines) | development of germinated seeds on sucrose plates (Arabidopsis seedlings; ½ MS plate with 2% sucrose) | germination rate (Arabidopsis seedlings; ½ MS plate with or without sucrose (both types of media)) | transgenic seedlings forming true leaves (Arabidopsis seedlings; [6]) | transgenic seedlings growing into fully-developed plants (Arabidopsis seedlings; [6]) | growth of transgenic petunia shoots (Petunia hybrida) | phenotype [2] | phenotype in independent transformant lines [3] | number of rosette leaves at the time of flowering [4] | bolting earlier than Col-0 (Arabidopsis plants [5]; lines 1, 2 and 3, inferred from rosette leaf number) | number of rosette leaves when bolting (Arabidopsis plants [5]; lines 1, 2 and 3, 16 hour light/8 hour dark, Col-0 11.5)
1 | MACRGVDSAC (chemically synthesized peptide sequence of BARP PEP6-3) [BARP producing sucrose dependent phenotype] | 5 mm | grew smaller than control lines | grew into fully-developed plants | 95% | < 30% | < 10% | grew slowly compared to controls before turning pale and dying after several weeks |  |  |  |  | 
2 | MACDFNFGIC (chemically synthesized peptide sequence of BARP CBF6AA-15 associated with early flowering behavior) | 5 mm |  |  |  |  |  |  | tiny, slightly early flowering | significant early-flowering phenotype | fewer number of leaves at the time of flowering than the wild type | 3 to 4 days | 10 rosette leaves
